Measured values taken from patent US20230054458A1, “ANTI-CLAUDIN ANTIBODY-DRUG CONJUGATE AND PHARMACEUTICAL USE THEREOF” (JIANGSU HENGRUI MEDICINE CO., LTD., priority 2019, published 2023).
Where two headings read alike, the source gives them in different places.

Tests used:
[1] = system: SK-BR-3 tumor cells; assay: Inhibition of in vitro proliferation of SK-BR-3 tumor cells (CTG); assay type: cell-based; conditions: Homo sapiens, SK-BR-3, 144 h, read-out: IC50 (nM) SK-BR-3
Description: (§1) This experiment was intended to test the inhibitory activity of the pharmaceutical compounds of the present disclosure against the in vitro proliferation of U87MG cells (glioma cells, Cell Bank, Chinese Academy of Sciences, Catalog #TCHu138) and SK-BR-3 tumor cells (human breast cancer cells, ATCC, Catalog #HTB-30). The cells were treated in vitro with a compound at different concentrations. After 6 days of culture, the proliferation of cells was tested using CTG (CellTiter-Glo® Luminescent Cell Viability Assay, Promega, Catalog #G7573) reagents, and the in vitro activity of the compound was evaluated according to the IC50 value.
(§2) The method of testing the inhibition of the in vitro proliferation of U87MG cells was described below as an example for the method of assaying for the inhibitory activity of the compounds of the present disclosure against the in vitro proliferation of tumor cells. The method is also applicable to, but not limited to, tests for inhibitory activity against the in vitro proliferation of other tumor cells.
(§3) 1. Cell culture: U87MG and SK-BR-3 cells were cultured in EMEM medium (GE, Catalog #SH30024.01) containing 10% FBS and McCoy's 5A medium (Gibco, Catalog #16600-108) containing 10% FBS, respectively.
(§4) 2. Preparation of cells. U87MG and SK-BR-3 cells growing at log phase were washed once with PBS (phosphate buffer, Shanghai BasalMedia Technologies Co., Ltd.) and then digested with 2-3 mL of trypsin (0.25% Trypsin-EDTA (1×), Gibico, Life Technologies) for 2-3 min. After the cells were completely digested, 10-15 mL of cell culture media were added to elute the digested cells. The mixtures were centrifuged at 1000 rpm for 5 min, and the supernatants were discarded. Then the cells were resuspended in 10-20 mL of cell culture media to give single-cell suspensions.
3. Cell plating. […]
(§5) 7. Plate reading. The 96-well cell culture plate was taken out and tested in a microplate reader (BMG labtech, PHERAstar FS) for chemiluminescence.
(§6) Data were processed and analyzed using Microsoft Excel and Graphpad Prism 5.

[2] = system: U87MG cells; assay: Inhibition of in vitro proliferation of U87MG cells (CTG); assay type: cell-based; conditions: Homo sapiens, U-87 MG, 144 h, read-out: IC50 (nM) U87
Description: as §1, §2, §3, §4
3. Cell plating. The U87MG and SK-BR-3 single-cell suspensions were each well mixed and adjusted with cell culture media to cell densities of 2.75×10^3 cells/mL and 8.25×10^3 cells/mL, respectively. The adjusted cell suspensions were each well mixed and added to 96-well cell culture plates at 180 μL/well. To each of the peripheral wells of the 96-well plates was added 200 μL of media only. The plate was incubated in an incubator for 24 h (37° C., 5% CO2).
4. Preparation of compounds. A compound was dissolved in DMSO (dimethyl sulfoxide, Shanghai Titan Scientific Co., Ltd.) to prepare a stock solution at an initial concentration of 10 mM.
Small molecule compounds were prepared at an initial concentration of 500 nM as follows.
Different test samples at concentration 100 μM (30 μL) were added to the first column of a 96-well U-bottom plate, and 20 μL of DMSO was added to each well of the second column through the eleventh column. The samples in the first column (10 μL) were added to the 20 μL of DMSO in the second column, and the mixtures were well mixed. The mixtures (10 μL) were added to the third column, and so on to the tenth column. The drugs in the plate (5 μL per well) were transferred to EMEM media (95 μL), and the mixtures were well mixed for later use.
5. Sample addition. The test samples prepared at different concentrations (20 μL) were added to a culture plate, with two duplicate wells set for each sample. […]
as §5, §6

[3] = in vitro proliferation, 6 days, CTG

| SMILES | IC50 [2, 3] [nM] | IC50 [1] [nM] | IC50 [2] [nM] | other results |
| --- | --- | --- | --- | --- |
| CC[C@@]1(O)C(=O)OCc2c1cc1n(c2=O)Cc2c-1nc1cc(F)c(C)c3c1c2[C@@H](NC(=O)[C@H](O)C1CC1)CC3 [(R)-2-cyclopropyl-N-((1S,9S)-9-ethyl-5-fluoro-9-hydroxy-4-methyl-10,13-dioxo-2,3,9,10,13,15-hexahydro-1H,12H-benzo[de]pyrano[3′,4′:6,7]indolizino[1,2-b]quinolin-1-yl)-2-hydroxyacetamide] | 0.86 | – | – | IC50 [1, 3]: 0.33 nM |
| CC[C@@]1(O)C(=O)OCc2c1cc1n(c2=O)Cc2c-1nc1cc(F)c(C)c3c1c2[C@@H](NC(=O)C1(O)CC1)CC3 [Example 1, N-((1S,9S)-9-ethyl-5-fluoro-9-hydroxy-4-methyl-10,13-dioxo-2,3,9,10,13,15-hexahydro-1H,12H-benzo[de]pyrano[3′,4′:6,7]indolizino[1,2-b]quinolin-1-yl)-1-hydroxycyclopropane-1-carboxamide] | – | 0.12 | 0.23 | – |
| CC[C@@]1(O)C(=O)OCc2c1cc1n(c2=O)Cc2c-1nc1cc(F)c(C)c3c1c2[C@@H](NC(=O)C1(O)CCCC1)CC3 [Example 4, N-((1S,9S)-9-ethyl-5-fluoro-9-hydroxy-4-methyl-10,13-dioxo-2,3,9,10,13,15-hexahydro-1H,12H-benzo[de]pyrano[3′,4′:6,7]indolizino[1,2-b]quinolin-1-yl)-1-hydroxycyclopentane-1-carboxamide] | – | 1.9 | – | – |
| CC[C@@]1(O)C(=O)OCc2c1cc1n(c2=O)Cc2c-1nc1cc(F)c(C)c3c1c2[C@@H](NC(=O)C1(CO)CC1)CC3 [Example 5, N-((1S,9S)-9-ethyl-5-fluoro-9-hydroxy-4-methyl-10,13-dioxo-2,3,9,10,13,15-hexahydro-1H,12H-benzo[de]pyrano[3′,4′:6,7]indolizino[1,2-b]quinolin-1-yl)-1-(hydroxymethyl)cyclopropane-1-carboxamide] | – | – | 4.81 | – |
| CC[C@@]1(O)C(=O)OCc2c1cc1n(c2=O)Cc2c-1nc1cc(F)c(C)c3c1c2[C@@H](NC(=O)C1(CO)CCC1)CC3 [Example 6, N-((1S,9S)-9-ethyl-5-fluoro-9-hydroxy-4-methyl-10,13-dioxo-2,3,9,10,13,15-hexahydro-1H,12H-benzo[de]pyrano[3′,4′:6,7]indolizino[1,2-b]quinolin-1-yl)-1-(hydroxymethyl)cyclobutane-1-carboxamide] | 1.83 | – | – | – |
| CC[C@@]1(O)C(=O)OCc2c1cc1n(c2=O)Cc2c-1nc1cc(F)c(C)c3c1c2[C@@H](NC(=O)C1(O)CCC1)CC3 [Example 7, N-((1S,9S)-9-ethyl-5-fluoro-9-hydroxy-4-methyl-10,13-dioxo-2,3,9,10,13,15-hexahydro-1H,12H-benzo[de]pyrano[3′,4′:6,7]indolizino[1,2-b]quinolin-1-yl)-1-hydroxycyclobutane-1-carboxamide] | 1.95 | – | – | – |
